Key:
Assay in all cases: relative viability (nuclei count vs DMSO), 5 days (fraction); higher = more cells survive
[1] = tested on: COR-L23
How it was run: (§1)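 Lung cancer cell lines were pin-tool dosed in 1536-well plates on the day after seeding, with either a lone drug or a fixed anchor-drug dose plus five library-drug doses (not always all listed) in √10 steps. Nuclei were counted on 4× images after 5 days. Relative viability is the ratio of treated-well to vehicle-well nuclei counts, with each value a median of duplicate plates.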

[2] = tested on: NCI-H1650
How it was run: as §1

[3] = tested on: A-427
How it was run: as §1

[4] = tested on: SK-MES-1
How it was run: as §1

[5] = tested on: ChaGo-K-1
How it was run: as §1

[6] = tested on: NCI-H650
How it was run: as §1

[7] = tested on: NCI-H1915
How it was run: as §1

[8] = tested on: NCI-H3122
How it was run: as §1

[9] = tested on: NCI-H661
How it was run: as §1

[10] = tested on: NCI-H2087
How it was run: as §1

[11] = tested on: EKVX
How it was run: as §1

[12] = tested on: LOU-NH91
How it was run: as §1

[13] = tested on: HCC-366
How it was run: as §1

[14] = tested on: HOP-62
How it was run: as §1

[15] = tested on: EPLC-272H
How it was run: as §1

[16] = tested on: NCI-H2023
How it was run: as §1

[17] = tested on: NCI-H1734
How it was run: as §1

[18] = tested on: NCI-H358
How it was run: as §1

[19] = tested on: NCI-H1395
How it was run: as §1

[20] = tested on: HCC-78
How it was run: as §1

[21] = tested on: NCI-H838
How it was run: as §1

[22] = tested on: NCI-H596
How it was run: as §1

O=c1[nH]c2ccccc2n1C1CCN(CCCC(c2ccc(F)cc2)c2ccc(F)cc2)CC1 [Pimozide] + Cc1nc(Nc2ncc(C(=O)Nc3c(C)cccc3Cl)s2)cc(N2CCN(CCO)CC2)n1 [Dasatinib] (partner 0.075 µM)
relative viability ([1]; first compound 0.08 µM): 0.58
relative viability ([1]; first compound 0.253 µM): 0.468
relative viability ([1]; first compound 0.8 µM): 0.53
relative viability ([1]; first compound 2.53 µM): 0.49
relative viability ([1]; first compound 8 µM): 0.455
relative viability ([2]; first compound 0.08 µM): 0.274
relative viability ([2]; first compound 0.253 µM): 0.282
relative viability ([2]; first compound 0.8 µM): 0.337
relative viability ([2]; first compound 2.53 µM): 0.298
relative viability ([2]; first compound 8 µM): 0.239
relative viability ([3]; first compound 0.08 µM): 0.697
relative viability ([3]; first compound 0.253 µM): 0.701
relative viability ([3]; first compound 0.8 µM): 0.681
relative viability ([3]; first compound 2.53 µM): 0.654
relative viability ([3]; first compound 8 µM): 0.665
relative viability ([4]; first compound 0.08 µM): 0.313
relative viability ([4]; first compound 0.253 µM): 0.41
relative viability ([4]; first compound 0.8 µM): 0.358
relative viability ([4]; first compound 2.53 µM): 0.325
relative viability ([4]; first compound 8 µM): 0.336
relative viability ([5]; first compound 0.08 µM): 0.613
relative viability ([5]; first compound 0.253 µM): 0.586
relative viability ([5]; first compound 0.8 µM): 0.509
relative viability ([5]; first compound 2.53 µM): 0.522
relative viability ([5]; first compound 8 µM): 0.595
relative viability ([6]; first compound 0.08 µM): 0.501
relative viability ([6]; first compound 0.253 µM): 0.454
relative viability ([6]; first compound 0.8 µM): 0.453
relative viability ([6]; first compound 2.53 µM): 0.487
relative viability ([6]; first compound 8 µM): 0.498
relative viability ([7]; first compound 0.08 µM): 0.328
relative viability ([7]; first compound 0.253 µM): 0.246
relative viability ([7]; first compound 0.8 µM): 0.214
relative viability ([7]; first compound 2.53 µM): 0.322
relative viability ([7]; first compound 8 µM): 0.303
relative viability ([8]; first compound 0.08 µM): 0.885
relative viability ([8]; first compound 0.253 µM): 0.861
relative viability ([8]; first compound 0.8 µM): 0.385
relative viability ([8]; first compound 2.53 µM): 0.851
relative viability ([8]; first compound 8 µM): 0.688
relative viability ([9]; first compound 0.08 µM): 0.782
relative viability ([9]; first compound 0.253 µM): 0.828
relative viability ([9]; first compound 0.8 µM): 0.826
relative viability ([9]; first compound 2.53 µM): 0.725
relative viability ([9]; first compound 8 µM): 0.611
relative viability ([10]; first compound 0.08 µM): 0.905
relative viability ([10]; first compound 0.253 µM): 0.724
relative viability ([10]; first compound 2.53 µM): 0.642
relative viability ([10]; first compound 8 µM): 0.672
relative viability ([11]; first compound 0.253 µM): 0.489
relative viability ([11]; first compound 0.8 µM): 0.544
relative viability ([11]; first compound 2.53 µM): 0.536
relative viability ([11]; first compound 8 µM): 0.688
relative viability ([12]; first compound 0.08 µM): 0.44
relative viability ([12]; first compound 0.253 µM): 0.564
relative viability ([12]; first compound 0.8 µM): 0.537
relative viability ([12]; first compound 2.53 µM): 0.572
relative viability ([12]; first compound 8 µM): 0.579
relative viability ([13]; first compound 0.08 µM): 0.613
relative viability ([13]; first compound 0.253 µM): 0.644
relative viability ([13]; first compound 0.8 µM): 0.625
relative viability ([13]; first compound 2.53 µM): 0.615
relative viability ([13]; first compound 8 µM): 0.714
relative viability ([14]; first compound 0.08 µM): 0.698
relative viability ([14]; first compound 0.253 µM): 0.617
relative viability ([14]; first compound 2.53 µM): 0.685
relative viability ([14]; first compound 8 µM): 0.651
relative viability ([15]; first compound 0.08 µM): 0.298
relative viability ([15]; first compound 0.253 µM): 0.322
relative viability ([15]; first compound 0.8 µM): 0.385
relative viability ([15]; first compound 2.53 µM): 0.293
relative viability ([15]; first compound 8 µM): 0.215
relative viability ([16]; first compound 0.08 µM): 0.497
relative viability ([16]; first compound 0.253 µM): 0.547
relative viability ([16]; first compound 0.8 µM): 0.518
relative viability ([16]; first compound 2.53 µM): 0.438
relative viability ([16]; first compound 8 µM): 0.451
relative viability ([17]; first compound 0.08 µM): 0.495
relative viability ([17]; first compound 0.253 µM): 0.454
relative viability ([17]; first compound 2.53 µM): 0.529
relative viability ([17]; first compound 8 µM): 0.493
relative viability ([18]; first compound 0.08 µM): 0.16
relative viability ([18]; first compound 0.253 µM): 0.199
relative viability ([18]; first compound 0.8 µM): 0.157
relative viability ([18]; first compound 2.53 µM): 0.156
relative viability ([18]; first compound 8 µM): 0.172
relative viability ([19]; first compound 0.08 µM): 0.388
relative viability ([19]; first compound 0.253 µM): 0.382
relative viability ([19]; first compound 0.8 µM): 0.355
relative viability ([19]; first compound 2.53 µM): 0.403
relative viability ([19]; first compound 8 µM): 0.361
relative viability ([20]; first compound 0.08 µM): 0.387
relative viability ([20]; first compound 0.8 µM): 0.327
relative viability ([20]; first compound 2.53 µM): 0.345
relative viability ([20]; first compound 8 µM): 0.373
relative viability ([21]; first compound 0.08 µM): 0.266
relative viability ([21]; first compound 0.253 µM): 0.282
relative viability ([21]; first compound 0.8 µM): 0.225
relative viability ([21]; first compound 2.53 µM): 0.302
relative viability ([21]; first compound 8 µM): 0.279
relative viability ([22]; first compound 0.08 µM): 0.565
relative viability ([22]; first compound 0.253 µM): 0.572
relative viability ([22]; first compound 0.8 µM): 0.624
relative viability ([22]; first compound 2.53 µM): 0.553
relative viability ([22]; first compound 8 µM): 0.662

Reference: the supplement of paper PMC10307832
